In patent US10399966B2, “Compounds for treatment of trypanosomes and neurological pathogens and uses thereof” (The University of North Carolina at Chapel Hill, priority 2016, dated 2019):
Like-named read-outs stand apart in the source and are kept apart here. Marks after values point to notes of the source that are not given here.

Columns and labels:
[1] = tested on: human hepatocytes HepG2; assay: Cytotoxicity against HepG2 cells; details: for EC50: Homo sapiens, HepG2, read-out: HepG2 EC50
[2] = tested on: human lymphocytes CRL-8155
Description: (§2) The selectivity of each compound for the parasite over each of the two cell lines was calculated.

[3] = tested on: T. b. brucei; assay: In vitro antitrypanosomal activity against T. brucei (growth inhibition); type: cell-based, Trypanosoma brucei; details: Trypanosoma brucei
Outline: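 Dose-response EC50 against T. brucei parasites with 0.4% DMSO final, 48 h at 37 °C; parasite density quantified by ATP luminescence (CellTiter-Glo).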

[4] = tested on: Trypanosoma cruzi; assay: Efficacy against T. cruzi in vitro; type: cell-based; details: Trypanosoma cruzi
[5] = Metabolic stability in human liver microsomes; type: in vitro ADME
Description: (§1) Metabolic stability was evaluated using liver microsomes derived from mouse and human sources. Microsomal incubations were carried out according to a protocol described previously (Wang et al., Antimicrob. Agents Chemother. 54:2507 (2010)) with modifications. Briefly, substrate stock solutions were prepared in DMSO and DMSO content was kept at 0.5% (v/v) in final incubations. Incubation mixtures ([…]), liver microsomes (0.5 mg/mL) from mouse (pool of 1000, CD-1 male mouse) or human (pool of 50, mixed gender) (XenoTech LLC, Lenexa, Kans.) in a phosphate buffer (100 mM, pH 7.4) containing 3.3 mM MgCl2. After a 5-minute pre-equilibration period at 37° C., reactions (in triplicate) were initiated by adding the NADPH cofactor (1 mM). For NADPH-independent reactions, the cofactor was replaced with water. Aliquots (10 μl) of the reaction mixtures were removed at 0, 15, 30, and 60 minutes and individually mixed with 200 μL of ice-cold acetonitrile containing internal standard. The mixtures were vortex-mixed, and precipitated protein was removed by centrifugation at 2,250×g for 15 min. The supernatant fractions were dried using a 96-well microplate evaporator (Apricot Designs Inc., Covina, Calif.) under N2 at 50° C. and reconstituted with 100 μL 50% methanol containing 0.1% trifluoroacetic acid before UPLC-MS/MS analysis. In vitro half-life (t1/2) was obtained by analyzing the substrate concentration vs. incubation time curve using the one-phase exponential decay model (GraphPad Prism® 5.0, San Diego, Calif.).

[6] = Metabolic stability in mouse liver microsomes; type: in vitro ADME
Description: as §1

[7] = Distribution between mouse plasma and brain (brain penetration, ip); type: in vivo; details: for Kp at 1 h / concentration at 60 min: mouse, in vivo, 5 mg/kg; for Kp at 1 h: read-out: Average brain/plasma ratio
Outline: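 Mice (n=3) received a single 5 mg/kg ip dose in 7% Tween 80, 3% ethanol, 5% DMSO, 0.9% saline and were sacrificed 1 h post-dose. Plasma and acetonitrile brain homogenates analysed by LC/MS/MS; brain concentration corrected for 2.5% vasculature volume, assuming 1 g = 1 mL.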

[8] = Mouse oral pharmacokinetics; type: in vivo
Description: […] Experiments were performed with groups of three mice per compound. Plasma was separated and extracted with acetonitrile for measurements of compound concentrations by liquid chromatography/tandem mass spectrometry.

[9] = Cytotoxicity against HepG2 cells; details: human
[10] = in vitro; details: human
Description: as §2

[11] = tested on: human lymphocytes CRL-8155; assay: Cytotoxicity against CRL-8155 cells; details: read-out: CRL-8155 EC50; concentration required to inhibit growth by 50%; human lymphoblasts
Description: as §2

[12] = Table 12, after 60 min (where t1/2 > 60 min)
[13] = Table 8, groups of 3 mice (compound 3: ± SEM of 6 mice)
[14] = Table 14, mice, single ip dose 5 mg/kg, one hour post-dose, ± SEM of 3 mice (compound 3: 6 mice)

## CCN(CC)CCCC(C)Nc1c2ccc(Cl)cc2nc2ccc(OC)cc12 (stereo not drawn) [quinacrine, reference compound]
[1]
  EC50: 10400 nM
[1]; human
  EC90: 18200 nM
[2]
  EC90: 9940 nM

## O=C(Nc1ccc2sc(-c3ccc(F)c(F)c3)nc2c1)N1CCC(F)C1 (racemic) [Compound 3, 2-(3,4-Difluorophenyl)-5-(3-fluoro-N-pyrrolidylamido)benzothiazole]
[3]; Table 6, read-out: T. brucei EC50
  EC50: 51.9 nM
[3]; Table 8, read-out: T. brucei EC50
  EC50: 51.9 nM
[3]; Table 11, read-out: T. b. brucei EC50
  EC50: 51.9 nM
[3]; Table 12, read-out: T. b. brucei EC50
  EC50: 51.9 nM
[3]; Table 9, read-out: T. brucei EC50
  EC50: 51.9 nM
[3]; Table 9, read-out: T. brucei EC90
  EC90: 91.9 nM
[4]; Table 6, read-out: T. cruzi EC50
  EC50: 91.9 nM
[4]; Table 10, read-out: T.cruzi EC50
  EC50: 177 nM
[4]; Table 10, read-out: T.cruzi EC90
  EC90: 525 nM
[5]; [12]
  Human microsomes, percentage of compound remaining: 99%
[5]; both sexes, human, liver microsomes, pH 7.4, Table 5, read-out: Microsome t1/2 (min) Human
  half-life at 3 μM: > 60 min
[5]; both sexes, human, liver microsomes, pH 7.4, Table 12, 37° C., NADPH (1 mM), microsomes 0.5 mg/mL, test compounds 1.5 μM, read-out: Human microsomes t1/2
  half-life at 1.5 μM: > 1 h
[6]; [12]
  Mouse microsomes, percentage of compound remaining: 52%
[6]; male, CD-1, mouse, liver microsomes, pH 7.4, Table 5, read-out: Microsome t1/2 (min) Mouse
  half-life at 3 μM: 60 min
[6]; male, CD-1, mouse, liver microsomes, pH 7.4, Table 12, 37° C., NADPH (1 mM), microsomes 0.5 mg/mL, test compounds 1.5 μM, read-out: Mouse microsomes t1/2
  half-life at 1.5 μM: > 1 h
[7]; [13]
  Average [compound] brain: 5.48 ± 0.683^a μM
  Average [compound] plasma: 3.26 ± 0.630^a μM
[7]; [14]
  [compound]Brain: 5.48 ± 0.683^b μM
  [compound]Plasma: 3.26 ± 0.630^b μM
[7]; Table 5, mouse brain penetration (60 min), n = 3
  Kp at 1 h: 1.52 ± 0.0416
[7]; Table 5 r15, mouse brain penetration (60 min), n = 3
  concentration at 60 min: 2.78 ± 0.652 µM
[7]; Table 5 r17 (second line so headed), mouse brain penetration (60 min), n = 3
  concentration at 60 min: 4.22 ± 0.974 µM
[7]; Table 8, groups of 3 mice
  Kp at 1 h: 2.11 ± 0.669
[8]; Table 5
  Mouse oral PK Tlast: 480 min
[8]; Table 5, n = 3
  Mouse oral PK Average AUC: 3847 ± 466 (n = 3) min * μmol/L
[8]; Table 13, mice, single 50 mg/kg oral gavage, vehicle Tween 80 (7%), EtOH (3%), DMSO (5%) in 0.9% NaCl, ± SEM of 3 mice, read-out: Cmax
  Cmax: 10 ± 0.65 µM
[8]; mouse, plasma, po, 50 mg/kg, Table 5, n = 3, read-out: Mouse oral PK Average Cmax
  Cmax: 10 ± 1.1 µM
[8]; mouse, plasma, po, 50 mg/kg, Table 5, read-out: Mouse oral PK Tmax (converted)
  Tmax: 1 h
[9]
  EC90: > 50000 nM
[1]
  EC50: > 50000 nM
other
  melting point: 209 to 210 °C
[10]
  EC90: > 50000 nM
[11]
  EC50: > 50000 nM
